Results: patent US9499495B2, “Quinazolines and azaquinazolines as dual inhibitors of RAS/RAF/MEK/ERK and PI3K/AKT/PTEN/mTOR pathways” (Asana Biosciences, LLC, priority 2013, dated 2016)
Values belong to the compound of their own block, whether it stands above or below them.

Legend:
[1] = target: T1, mTOR kinase (Homo sapiens, UniProt P42345); assay: mTOR kinase TR-FRET assay; assay type: biochemical
T1 construct: purchased Millipore, US
Summary of the method: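 TR-FRET with ULight-p70 S6K (Thr 389) peptide (50 nM) and 20 μM ATP in 50 mM HEPES pH 7.5, 1 mM EGTA, 3 mM MnCl2; compound pre-incubated with enzyme before substrate addition, reaction at rt, EDTA-stopped. Eu anti-phospho antibody read 665/615 nm; IC50 from sigmoidal dose-response fit.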

[2] = system: A375 cells; assay: XTT assay for cell viability, A375 cells; assay type: cell-based; details: Homo sapiens, A-375, 72 h
Procedure: Cell lines (A375 ATCC No. CRL-1619, A2058 ATCC No. CRL-11147 and RKO ATCC No. CRL-2577, American Type Culture Collection (ATCC), Manassas Va.) once attaining ˜80% confluency were trypsinized, centrifuged and resuspended in fresh media. Cells (1000-2000/per well) were seeded in 96-well plate and incubated over-night at 37° C. in a 5% CO2 incubator. Compound dilutions were prepared in 100% DMSO followed by dilutions in the respective media. The cells were treated with NCEs for 72 h at 37° C. in 5% CO2 incubator. After 72 h, freshly prepared XTT (1 mg/ml)/PMS (25 μM) solution was added, incubated for 2 to 3 h at 37° C. and the absorbance was measured at 450 nm using an ELISA plate reader. Keeping DMSO control as 100%, the effect of the compound to inhibit the cell proliferation was calculated and the GI50 values were determined using sigmoidal dose response curve fit in GraphPad Prism® v5 software.

[3] = target: T2, B-RAFV600E (Homo sapiens, UniProt P15056, V600E); assay: B-RAFV600E radiometric assay; assay type: biochemical; details: read-out: Kinase assay B-Raf
T2 construct: purchased Millipore, USA 14-557
T2 sequence (P15056 416-766 V600E limits assumed): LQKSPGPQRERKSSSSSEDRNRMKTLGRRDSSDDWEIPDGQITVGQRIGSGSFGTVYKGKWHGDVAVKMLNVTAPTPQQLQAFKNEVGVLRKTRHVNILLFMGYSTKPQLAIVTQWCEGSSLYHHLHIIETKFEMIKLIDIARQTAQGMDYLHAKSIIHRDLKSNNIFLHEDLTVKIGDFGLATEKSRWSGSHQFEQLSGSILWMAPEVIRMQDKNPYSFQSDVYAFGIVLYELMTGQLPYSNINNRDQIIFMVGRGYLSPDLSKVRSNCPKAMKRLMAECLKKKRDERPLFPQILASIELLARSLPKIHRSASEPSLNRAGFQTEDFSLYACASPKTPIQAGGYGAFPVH
Summary of the method: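 B-RAFV600E was preincubated 45 min at rt with compound in 1% DMSO. MEK-K97M (0.5 μg), 5 μM final cold ATP and [γ-32P]ATP were then added for 2 h at rt. Phosphorylated MEK was captured on P81 paper and scintillation-counted; IC50 came from a sigmoidal dose-response fit.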

[4] = system: pERK in A375 cells; assay: In Cell Western (ICW) assay, pERK in A375 cells; assay type: cell-based; details: Homo sapiens, A-375, 3 h treatment
Procedure: Cell lines A375, A2058 and RKO obtained from the ATCC as provided above, were grown, and after attaining ˜80% confluency were trypsinized, centrifuged and resuspended in fresh media. The cells were seeded at the specified density (20,000 to 50,000) in a 96-well format black-well clear bottom plate (Corning) and incubated overnight at 37° C. in a 5% CO2 incubator. The next day, compound dilutions of test compounds were prepared in 100% DMSO followed by dilutions in respective media. Treatment of test compounds was performed for 3 h at 37° C. in 5% CO2 incubator. Following 3 h drug treatment, the conditional media was discarded and the cells were washed once with cPBS (PBS containing 0.1% magnesium chloride hexahydrate and 0.1% anhydrous calcium chloride) and fixed with 4% paraformaldehyde in cPBS for 1 h at rt. After fixing, the cells were given three washes using cPBST (cPBS containing 0.1% Triton™ X-100 reagent) and then blocked using blocking solution (5% skimmed milk powder or 5% BSA prepared in cPBST) for 2 h at rt with shaking at 300 rpm. The cells were again washed thrice with cPBST and incubated with primary antibody phospho-p44/42 MAPK(Erk1/2)(Thr202/204) antibody (Cell Signaling, Catalog # 9101L), phospho S6 ribosomal protein (Cell Signaling, Catalog #4858L), phospho AKT (Thr 308) (Cell Signaling, Catalog #9275) or phospho AKT (Ser 473) (Cell Signaling, Catalog #4060L) in specified dilutions (1:500-1:2500), prepared in respective blocking solutions, in a racker overnight at 4° C. The next day, the cells were washed with 1× Delfia® wash buffer (4×1 wash) and incubated with secondary antibody (Delfia®-Eu-N1 labeled anti-rabbit antibody; PerkinElmer, Catalog #AD0105; dilutions: 1:2000 to 1:6000 in Delfia® assay buffer (PerkinElmer, Catalog #1244-111)) for 2 h at rt in the dark at 300 rpm. The cells were then given four washes with 1× Delfia® wash buffer and incubated with Wallac Delfia® Enhancement solution (100 μL; PerkinElmer, Catalog #1244-105) for 20 min at rt in the dark at 300 rpm. The fluorescence emission was then read at 615 nm with an excitation wavelength of 340 nm using a Victor V5 Fluorometer (Perkin Elmer, US). The cells were then washed once with 1×cPBS and incubated with 100 μL of 0.5 mg/mL of Hoechst 33258 dye prepared in cPBS and read at 460 nm with 355 nm excitation, thereby evaluating the correction factor.
The % inhibition for the test compounds of formula (I) (new chemical entities (NCEs)) was calculated keeping DMSO control as 0% and the IC50 values were determined using sigmoidal dose response curve fit in GraphPad Prism® v5 software.

T1 sequence (P42345 1362-2549 limits assumed): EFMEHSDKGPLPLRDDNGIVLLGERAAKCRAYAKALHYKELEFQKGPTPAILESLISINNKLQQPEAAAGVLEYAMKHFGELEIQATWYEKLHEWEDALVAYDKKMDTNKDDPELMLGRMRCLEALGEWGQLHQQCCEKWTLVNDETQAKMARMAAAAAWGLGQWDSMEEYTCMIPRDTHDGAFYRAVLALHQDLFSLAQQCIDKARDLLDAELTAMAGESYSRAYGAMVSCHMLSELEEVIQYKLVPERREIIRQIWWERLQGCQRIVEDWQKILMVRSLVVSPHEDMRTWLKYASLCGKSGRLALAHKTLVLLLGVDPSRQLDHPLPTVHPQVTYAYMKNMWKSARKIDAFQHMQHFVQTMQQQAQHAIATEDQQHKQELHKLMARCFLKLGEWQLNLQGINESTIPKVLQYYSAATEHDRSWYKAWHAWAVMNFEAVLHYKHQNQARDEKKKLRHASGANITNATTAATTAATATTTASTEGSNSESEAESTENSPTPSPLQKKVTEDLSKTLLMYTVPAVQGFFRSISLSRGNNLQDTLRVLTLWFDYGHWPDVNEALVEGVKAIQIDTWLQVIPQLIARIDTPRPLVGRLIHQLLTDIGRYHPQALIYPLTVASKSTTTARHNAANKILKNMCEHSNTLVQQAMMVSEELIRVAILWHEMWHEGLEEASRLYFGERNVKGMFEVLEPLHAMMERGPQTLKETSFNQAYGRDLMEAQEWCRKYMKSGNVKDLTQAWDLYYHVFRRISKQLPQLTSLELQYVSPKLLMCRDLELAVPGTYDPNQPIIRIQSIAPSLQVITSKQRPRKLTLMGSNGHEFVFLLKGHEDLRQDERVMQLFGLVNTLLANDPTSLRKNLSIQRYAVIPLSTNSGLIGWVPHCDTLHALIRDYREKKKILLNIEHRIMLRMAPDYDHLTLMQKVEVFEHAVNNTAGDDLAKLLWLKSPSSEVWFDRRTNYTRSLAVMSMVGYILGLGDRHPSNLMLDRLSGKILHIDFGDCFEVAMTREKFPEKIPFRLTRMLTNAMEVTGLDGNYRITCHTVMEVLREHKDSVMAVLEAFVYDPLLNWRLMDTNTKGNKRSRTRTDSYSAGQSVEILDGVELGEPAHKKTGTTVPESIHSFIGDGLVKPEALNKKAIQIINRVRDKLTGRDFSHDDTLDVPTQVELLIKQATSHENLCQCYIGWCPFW

SMILES: COc1cc(-c2cccc(NS(=O)(=O)c3ccccc3F)c2F)cc2c(N3CCOCC3)nc(-c3cnc(N)nc3)nc12 [Example 47, N-(3-(2-(2-aminopyrimidin-5-yl)-8-methoxy-4-morpholinoquinazolin-6-yl)-2-fluorophenyl)-2-fluorobenzenesulfonamide]
- IC50 [1]: 100 to 1000 nM
- IC50 [2]: 100 to 1000 nM
- IC50 [3]: 1 to 100 nM
- IC50 [4]: 100 to 1000 nM

SMILES: CCOc1cc(-c2cccc(NS(=O)(=O)CCCF)c2F)cc2c(N3CCOCC3)nc(-c3cnc(N)nc3)nc12 [Example 54, N-(3-(2-(2-aminopyrimidin-5-yl)-8-ethoxy-4-morpholinoquinazolin-6-yl)-2-fluorophenyl)-3-fluoropropane-1-sulfonamide]
- IC50 [1]: 100 to 1000 nM
- IC50 [2]: 100 to 1000 nM
- IC50 [3]: 1 to 100 nM
- IC50 [4]: 1 to 100 nM

SMILES: Nc1ccc(-c2nc(N3CCOCC3)c3cc(-c4cccc(NS(=O)(=O)CCCF)c4F)cc(N4CCCC4)c3n2)cn1 [Example 70, N-(3-(2-(6-aminopyridin-3-yl)-4-morpholino-8-(pyrrolidin-1-yl)quinazolin-6-yl)-2-fluorophenyl)-3-fluoropropane-1-sulfonamide]
- IC50 [1]: 100 to 1000 nM
- IC50 [2]: 1 to 100 nM
- IC50 [3]: 1 to 100 nM
- IC50 [4]: 100 to 1000 nM

SMILES: COc1cc(-c2c(F)ccc(NS(=O)(=O)c3c(F)cccc3F)c2F)cc2c(N3CCOCC3)nc(-c3cnc(N)nc3)nc12 [Example 76, N-(3-(2-(2-aminopyrimidin-5-yl)-8-methoxy-4-morpholinoquinazolin-6-yl)-2,4-difluorophenyl)-2,6-difluorobenzenesulfonamide]
- IC50 [1]: 100 to 1000 nM
- IC50 [2]: 100 to 1000 nM
- IC50 [3]: 1 to 100 nM
- IC50 [4]: 100 to 1000 nM

SMILES: COc1cc(-c2c(F)ccc(NS(=O)(=O)c3c(F)cccc3F)c2F)cc2c(N3CCOCC3)nc(-c3ccc(N)nc3)nc12 [Example 77, N-(3-(2-(6-aminopyridin-3-yl)-8-methoxy-4-morpholinoquinazolin-6-yl)-2,4-difluorophenyl)-2,6-difluorobenzenesulfonamide]
- IC50 [1]: 100 to 1000 nM
- IC50 [2]: 100 to 1000 nM
- IC50 [3]: 1 to 100 nM
- IC50 [4]: 100 to 1000 nM

SMILES: COc1cc(-c2c(F)ccc(NS(=O)(=O)c3cc(F)ccc3F)c2F)cc2c(N3CCOCC3)nc(-c3ccc(N)nc3)nc12 [Example 78, N-(3-(2-(6-aminopyridin-3-yl)-8-methoxy-4-morpholinoquinazolin-6-yl)-2,4-difluorophenyl)-2,5-difluorobenzenesulfonamide]
- IC50 [1]: 100 to 1000 nM
- IC50 [2]: 100 to 1000 nM
- IC50 [3]: 1 to 100 nM
- IC50 [4]: 1 to 100 nM

SMILES: CCCS(=O)(=O)Nc1ccc(Cl)c(-c2cc(OC)c3nc(-c4ccc(N)nc4)nc(N4CCOCC4)c3c2)c1F [Example 80, N-(3-(2-(6-aminopyridin-3-yl)-8-methoxy-4-morpholinoquinazolin-6-yl)-4-chloro-2-fluorophenyl)propane-1-sulfonamide]
- IC50 [1]: 100 to 1000 nM
- IC50 [2]: 100 to 1000 nM
- IC50 [3]: 1 to 100 nM
- IC50 [4]: 100 to 1000 nM

Further lines, results first:

- IC50 [1]: 100 to 1000 nM
- IC50 [2]: 100 to 1000 nM
- IC50 [3]: 1 to 100 nM
- IC50 [4]: 1 to 100 nM
SMILES: COc1cc(-c2cccc(NS(=O)(=O)c3cc(F)ccc3F)c2F)cc2c(N3CCOCC3)nc(-c3ccc(N)nc3)nc12 [Example 28, N-(3-(2-(6-aminopyridin-3-yl)-8-methoxy-4-morpholinoquinazolin-6-yl)-2-fluorophenyl)-2,5-difluorobenzenesulfonamide]

- IC50 [1]: 100 to 1000 nM
- IC50 [2]: 100 to 1000 nM
- IC50 [3]: 1 to 100 nM
- IC50 [4]: 1 to 100 nM
SMILES: COc1cc(-c2cccc(NS(=O)(=O)c3ccccc3F)c2F)cc2c(N3CCOCC3)nc(-c3ccc(N)nc3)nc12 [Example 29, N-(3-(2-(6-aminopyridin-3-yl)-8-methoxy-4-morpholinoquinazolin-6-yl)-2-fluorophenyl)-2-fluorobenzenesulfonamide]

- IC50 [1]: 100 to 1000 nM
- IC50 [2]: 100 to 1000 nM
- IC50 [3]: 100 to 1000 nM
- IC50 [4]: 100 to 1000 nM
SMILES: COc1cc(-c2cccc(NS(=O)(=O)C(C)C)c2F)cc2c(N3CCOCC3)nc(-c3ccc(N)nc3)nc12 [Example 33, N-(3-(2-(6-aminopyridin-3-yl)-8-methoxy-4-morpholinoquinazolin-6-yl)-2-fluorophenyl)propane-2-sulfonamide]

- IC50 [1]: 100 to 1000 nM
- IC50 [2]: 100 to 1000 nM
- IC50 [3]: 1 to 100 nM
- IC50 [4]: 1 to 100 nM
SMILES: COc1cc(-c2cccc(NS(=O)(=O)c3cccs3)c2F)cc2c(N3CCOCC3)nc(-c3ccc(N)nc3)nc12 [Example 38, N-(3-(2-(6-aminopyridin-3-yl)-8-methoxy-4-morpholinoquinazolin-6-yl)-2-fluorophenyl)thiophene-2-sulfonamide]

- IC50 [1]: 1 to 100 nM
- IC50 [2]: 100 to 1000 nM
- IC50 [3]: 1 to 100 nM
- IC50 [4]: 1 to 100 nM
SMILES: COc1cc(-c2cccc(NS(=O)(=O)CCCF)c2F)cc2c(N3CCOC[C@@H]3C)nc(-c3ccc(N)nc3)nc12 [Example 41, (S)-N-(3-(2-(6-aminopyridin-3-yl)-8-methoxy-4-(3-methylmorpholino)quinazolin-6-yl)-2-fluorophenyl)-3-fluoropropane-1-sulfonamide]

- IC50 [1]: 100 to 1000 nM
- IC50 [2]: 100 to 1000 nM
- IC50 [3]: 100 to 1000 nM
- IC50 [4]: 100 to 1000 nM
SMILES: COc1cc(-c2cccc(NS(=O)(=O)CCCF)c2F)cc2c(N3CCOC[C@@H]3C)nc(-c3cnc(N)nc3)nc12 [Example 45, (S)-N-(3-(2-(2-aminopyrimidin-5-yl)-8-methoxy-4-(3-methylmorpholino)quinazolin-6-yl)-2-fluorophenyl)-3-fluoropropane-1-sulfonamide]

- IC50 [1]: 100 to 1000 nM
- IC50 [2]: 100 to 1000 nM
- IC50 [3]: 1 to 100 nM
- IC50 [4]: 1 to 100 nM
SMILES: Nc1ccc(-c2nc(N3CCOCC3)c3cc(-c4cccc(NS(=O)(=O)CCCF)c4F)ccc3n2)cn1 [Example 46, N-(3-(2-(6-aminopyridin-3-yl)-4-morpholinoquinazolin-6-yl)-2-fluorophenyl)-3-fluoropropane-1-sulfonamide]

- IC50 [1]: 1 to 100 nM
- IC50 [2]: 1000 to 10000 nM
- IC50 [3]: 1 to 100 nM
- IC50 [4]: 1000 to 10000 nM
SMILES: NC(=O)COc1cc(-c2cccc(NS(=O)(=O)CCCF)c2F)cc2c(N3CCOCC3)nc(-c3ccc(N)nc3)nc12 [Example 60, 2-((2-(6-aminopyridin-3-yl)-6-(2-fluoro-3-(3-fluoropropylsulfonamido)phenyl)-4-morpholino-quinazolin-8-yl)oxy)acetamide]

- IC50 [1]: 1 to 100 nM
- IC50 [2]: 100 to 1000 nM
- IC50 [3]: 100 to 1000 nM
- IC50 [4]: 1 to 100 nM
SMILES: Nc1ncc(-c2nc(N3CCOCC3)c3cc(-c4cccc(NS(=O)(=O)CCCF)c4F)cc(N4CCCC4)c3n2)cn1 [Example 71, N-(3-(2-(2-aminopyrimidin-5-yl)-4-morphollno-8-(pyrrolidin-1-yl)quinazolin-6-yl)-2-fluorophenyl)-3-fluoropropane-1-sulfonamide]

- IC50 [1]: 1 to 100 nM
- IC50 [2]: 100 to 1000 nM
- IC50 [3]: 1 to 100 nM
- IC50 [4]: 1 to 100 nM
SMILES: CCCS(=O)(=O)Nc1ccc(F)c(-c2cc(OC)c3nc(-c4ccc(N)nc4)nc(N4CCOCC4)c3c2)c1F [Example 75, N-(3-(2-(6-aminopyridin-3-yl)-8-methoxy-4-morpholinoquinazolin-6-yl)-2,4-difluorophenyl)propane-1-sulfonamide]
